# Data: the supplement of paper PMC11208160
# Experiment: recombinant UMI read abundance after kanamycin selection (control-corrected) (log10(CPM+1)); higher = more efficient recombination; extreme values may be limits of the assay; sequences stand for … in AGTGCAGAGAAAATCGGCCAGTTTTCTCTGCCTGCAGTCCGCATGCCGTGGGACCCCTTGGGTTCTAACCTGTTGCCTAGATTTATGCAGCGGACTGCCTTTCTCCCAAAGTGATAAACCGG…AGGTTGGTTTCACT; site = the 11-nt donor
# Procedure: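 Pooled E. coli donor-specificity screen for the IS621 bridge recombinase. Each library member carries a reprogrammed 11-nt donor and a full-length LE bridge RNA expressed in cis from the natural promoter, with a paired donor-binding loop (8-nt LDG + 4-nt RDG) and a target-binding loop fixed to T5. It is co-electroporated with a T5 target plasmid; recombinase is induced with 0.07 mM IPTG and recombinants are selected on kanamycin. UMIs are counted as CPM, averaged over two biological replicates and corrected by the unselected control. Molecule = full bridge RNA written as DNA, built from the T5 scaffold: LDG = donor specificity nt 1-8, RDG = reverse complement of nt 8-11.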
# 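Further: IS621 bridge recombinase in Escherichia coli cells against a fixed T5 target plasmid.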
row,Sequence,recombinant UMI read abundance (log10)
1,ACTAGAACATGGACCGGTTTTCCCGGTAATCCGTATTTGAG (site ACTAGAACTCA),0.00396
2,ACTAGAACATGGACCGGTTTTCCCGGTAATCCGTATTTGAG (site ACTAGAACTCC),0.0223
3,ACTAGAACATGGACCGGTTTTCCCGGTAATCCGTATTTGAG (site ACTAGAACTCG),0
4,ACTAGAACATGGACCGGTTTTCCCGGTAATCCGTATTTGAG (site ACTAGAACTCT),1.72
5,ACTAGAACATGGACCGGTTTTCCCGGTAATCCGTATTTGAG (site ACTAGAACTGT),0
6,ACTAGAACATGGACCGGTTTTCCCGGTAATCCGTATTTGAG (site ACTAGAACTTT),0.286
7,ACTAGAACATGGACCGGTTTTCCCGGTAATCCGTATTTGAG (site ACTAGACCTCT),0.00567
8,ACTAGAACATGGACCGGTTTTCCCGGTAATCCGTATTTGAG (site ACTAGAGCTCT),0.324
9,ACTAGAACATGGACCGGTTTTCCCGGTAATCCGTATTTGAG (site ACTAGATCTCT),1.72
10,ACTAGAACATGGACCGGTTTTCCCGGTAATCCGTATTTGAG (site ACTAGCACTCT),0.0125
11,ACTAGAACATGGACCGGTTTTCCCGGTAATCCGTATTTGAG (site ACTAGGACTCT),0.407
12,ACTAGAACATGGACCGGTTTTCCCGGTAATCCGTATTTGAG (site ACTAGTACTCT),0.0383
13,ACTAGAACATGGACCGGTTTTCCCGGTAATCCGTATTTGAG (site ACTATAACTCT),1.22
14,ACTAGAACATGGACCGGTTTTCCCGGTAATCCGTATTTGAG (site ACTCGAACTCT),0.115
15,ACTAGAACATGGACCGGTTTTCCCGGTAATCCGTATTTGAG (site ACTGGAACTCT),0.3
16,ACTAGAACATGGACCGGTTTTCCCGGTAATCCGTATTTGAG (site ACTTGAACTCT),0.118
17,ACTAGAACATGGACCGGTTTTCCCGGTAATCCGTATTTGAG (site AGTAGAACTCT),0.227
18,ACTAGAACATGGACCGGTTTTCCCGGTAATCCGTATTTGAG (site ATTAGAACTCT),1.34
19,ACTAGAACATGGACCGGTTTTCCCGGTAATCCGTATTTGAG (site CCTAGAACTCT),1.33
20,ACTAGAACATGGACCGGTTTTCCCGGTAATCCGTATTTGAG (site GCTAGAACTCT),0.34
21,ACTAGAACATGGACCGGTTTTCCCGGTAATCCGTATTTGAG (site TCTAGAACTCT),0.854
22,ACTAGAACATGGACCGGTTTTCCCGGTAATCCGTATTTGCG (site ACTAGAACTCA),0.0146

row,Sequence,recombinant UMI read abundance (log10)
1,ACTAGAACATGGACCGGTTTTCCCGGTAATCCGTATTTGCG (site ACTAGAACTCC),0.0147
2,ACTAGAACATGGACCGGTTTTCCCGGTAATCCGTATTTGCG (site ACTAGAACTCG),2.19
3,ACTAGAACATGGACCGGTTTTCCCGGTAATCCGTATTTGCG (site ACTAGAACTCT),0.412
4,ACTAGACCATGGACCGGTTTTCCCGGTAATCCGTATTTGGA (site ACTAGACCTTC),0.014
5,ACTAGAGCATGGACCGGTTTTCCCGGTAATCCGTATTTGAG (site ACTAGAACTCT),1.52
6,ACTAGAGCATGGACCGGTTTTCCCGGTAATCCGTATTTGAG (site ACTAGACCTCT),0
7,ACTAGAGCATGGACCGGTTTTCCCGGTAATCCGTATTTGAG (site ACTAGAGCTCT),2.15
8,ACTAGAGCATGGACCGGTTTTCCCGGTAATCCGTATTTGAG (site ACTAGATCTCT),1.65
9,ACTAGAGCATGGACCGGTTTTCCCGGTAATCCGTATTTGCA (site ACTAGAGCTTG),2.15
10,ACTAGCGCATGGACCGGTTTTCCCGGTAATCCGTATTTGGT (site ACTAGAGCTAC),0.428
11,ACTAGCGCATGGACCGGTTTTCCCGGTAATCCGTATTTGGT (site ACTAGCGCTAC),1.86
12,ACTAGCGCATGGACCGGTTTTCCCGGTAATCCGTATTTGGT (site ACTAGGGCTAC),0.00433
13,ACTAGCGCATGGACCGGTTTTCCCGGTAATCCGTATTTGGT (site ACTAGTGCTAC),0.00815
14,ACTAGGACATGGACCGGTTTTCCCGGTAATCCGTATTTGAG (site ACTAGAACTCT),2.04
15,ACTAGGACATGGACCGGTTTTCCCGGTAATCCGTATTTGAG (site ACTAGCACTCT),0.00393
16,ACTAGGACATGGACCGGTTTTCCCGGTAATCCGTATTTGAG (site ACTAGGACTCT),2.15
17,ACTAGGACATGGACCGGTTTTCCCGGTAATCCGTATTTGAG (site ACTAGTACTCT),0.226
18,ACTAGGGCATGGACCGGTTTTCCCGGTAATCCGTATTTGGT (site ACTAGAGCTAC),1.2
19,ACTAGGGCATGGACCGGTTTTCCCGGTAATCCGTATTTGGT (site ACTAGCGCTAC),0.00536
20,ACTAGGGCATGGACCGGTTTTCCCGGTAATCCGTATTTGGT (site ACTAGGGCTAC),1.2
21,ACTAGGGCATGGACCGGTTTTCCCGGTAATCCGTATTTGGT (site ACTAGTGCTAC),0.0165
22,ACTAGTACATGGACCGGTTTTCCCGGTAATCCGTATTTGGT (site ACTAGTACTAC),1.19

row,Sequence,recombinant UMI read abundance (log10)
1,ACTAGTACATGGACCGGTTTTCCCGGTAATCCGTATTTGGT (site ACTAGTCCTAC),0.00589
2,ACTAGTACATGGACCGGTTTTCCCGGTAATCCGTATTTGGT (site ACTAGTGCTAC),0.181
3,ACTAGTACATGGACCGGTTTTCCCGGTAATCCGTATTTGGT (site ACTAGTTCTAC),0
4,ACTAGTGCATGGACCGGTTTTCCCGGTAATCCGTATTTGCC (site ACTAGTGCTGG),1.93
5,ACTAGTTCATGGACCGGTTTTCCCGGTAATCCGTATTTGAA (site ACTAGTTCTTT),1.03
6,ACTATGCCATGGACCGGTTTTCCCGGTAATCCGTATTTGTC (site ACTATGCCTGA),0
7,ACTCATCCATGGACCGGTTTTCCCGGTAATCCGTATTTGAC (site ACACATCCTGT),0
8,ACTCATCCATGGACCGGTTTTCCCGGTAATCCGTATTTGAC (site ACCCATCCTGT),0.872
9,ACTCATCCATGGACCGGTTTTCCCGGTAATCCGTATTTGAC (site ACGCATCCTGT),0.525
10,ACTCATCCATGGACCGGTTTTCCCGGTAATCCGTATTTGAC (site ACTCATCCTGT),0.798
11,ACTCCAACATGGACCGGTTTTCCCGGTAATCCGTATTTGCT (site ACTCCAACTAG),1.66
12,ACTCCACCATGGACCGGTTTTCCCGGTAATCCGTATTTGTG (site ACTCCACCTCA),0.0232
13,ACTCCGACATGGACCGGTTTTCCCGGTAATCCGTATTTGGC (site ACTCCGACTGC),1.98
14,ACTCGAACATGGACCGGTTTTCCCGGTAATCCGTATTTGTC (site ACACGAACTGA),0
15,ACTCGAACATGGACCGGTTTTCCCGGTAATCCGTATTTGTC (site ACCCGAACTGA),1.84
16,ACTCGAACATGGACCGGTTTTCCCGGTAATCCGTATTTGTC (site ACGCGAACTGA),1.26
17,ACTCGAACATGGACCGGTTTTCCCGGTAATCCGTATTTGTC (site ACTCGAACTGA),2
18,ACTCGCTCATGGACCGGTTTTCCCGGTAATCCGTATTTGGT (site ACTCGCTCTAC),2.03
19,ACTCTACCATGGACCGGTTTTCCCGGTAATCCGTATTTGCT (site ACTCTACCTAG),0
20,ACTGACACATGGACCGGTTTTCCCGGTAATCCGTATTTGAC (site ACTGACACTGT),2.83
21,ACTTATGCATGGACCGGTTTTCCCGGTAATCCGTATTTGCT (site ACTTATGCTAG),0.0248
